The target in one series is T1, FXR (Homo sapiens, UniProt Q96RI1).
T1 construct: 5 μL of 20 nM FXR-LBD Complete Coregulator buffer G; purchased ThermoFisher PV4833
T1 sequence (Q96RI1 262-486 limits assumed): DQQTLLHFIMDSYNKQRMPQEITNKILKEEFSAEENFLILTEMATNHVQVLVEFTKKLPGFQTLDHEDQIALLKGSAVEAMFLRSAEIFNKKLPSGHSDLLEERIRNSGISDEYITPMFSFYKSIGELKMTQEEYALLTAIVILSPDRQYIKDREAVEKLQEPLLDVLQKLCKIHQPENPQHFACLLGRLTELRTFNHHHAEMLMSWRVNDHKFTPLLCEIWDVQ
Put plainly: FXR antagonist screening by TR-FRET (LanthaScreen TR-FRET FXR co-activation assay kit). The class given is biochemical. The following applies: Table 1.1, FXR antagonistic activity; TR-FRET with CDCA; geometric means of at least two independent runs. In outline:
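FXR-LBD (20 nM working solution) mixed with compound, CDCA (200 μM working solution) as agonist, Fluorescein-SRC2-2 and Tb-anti-GST antibody in Coregulator buffer G; 10 h at room temperature. Coactivator recruitment read by TR-FRET, triplicate wells.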

Each structure is given as a SMILES string. pIC50: −log10 of the molar value.

As for `Cc1c(C(=O)O)oc2ccc(S(=O)(=O)N(CCc3ccccc3)c3cccc(N4CCN(C)CC4)c3)cc12` [Example F27-S78, 3-methyl-5-(N-(3-(4-methylpiperazin-1-yl)phenyl)-N-phenethylsulfamoyl)benzofuran-2-carboxylic acid], the melting point (in general, the temperature of the solid-liquid transition) was 232 to 233 °C. Further, the pIC50 (in general, −log10 of the IC50, conventionally taken in molar units) at FXR is 4.00 to 4.30.
`Cc1c(C(=O)O)oc2ccc(S(=O)(=O)N(CCc3ccccc3)Cc3ccc(C(C)(C)C)cc3)cc12` [Example F27-S37, 3-methyl-5-(N-(4-tert-butylbenzyl)-N-phenethylsulfamoyl)benzofuran-2-carboxylic acid] yielded a melting point of 206 to 207 °C. The pIC50 against FXR was 4.30 to 5.00.
For `Cc1c(C(=O)O)oc2ccc(S(=O)(=O)N(CCc3ccccc3)Cc3cccc(Br)c3)cc12` [Example F27-S22, 3-methyl-5-(N-(3-bromobenzyl)-N-phenethylsulfamoyl)benzofuran-2-carboxylic acid], in that order: > 380 °C (dec.) and 4.30 to 5.00.
The compound `Cc1c(C(=O)O)oc2ccc(S(=O)(=O)N(CCc3ccccc3)Cc3c(Cl)cccc3Cl)cc12` [Example F27-S49, 3-methyl-5-(N-(2,6-dichlorobenzyl)-N-phenethylsulfamoyl)benzofuran-2-carboxylic acid] yielded a melting point of 176 to 177 °C. The compound further showed a pIC50 on FXR of 5.00 to 7.00.
As to `Cc1c(C(=O)O)oc2ccc(S(=O)(=O)N(CCc3ccccc3)Cc3cccc(Cl)c3)cc12` [Example F27-S21, 3-methyl-5-(N-(3-chlorobenzyl)-N-phenethylsulfamoyl)benzofuran-2-carboxylic acid], the melting point was > 380 °C (dec.). Also, the pIC50 against FXR was 4.30 to 5.00.
In turn, `Cc1c(C(=O)O)oc2ccc(S(=O)(=O)N(CCc3ccccc3)Cc3ccc(OC(F)(F)F)cc3)cc12` [Example F27-S34, 3-methyl-5-(N-(4-(trifluoromethoxy)benzyl)-N-phenethylsulfamoyl)benzofuran-2-carboxylic acid] showed a melting point of 216 to 217 °C. The compound further had a pIC50 at FXR of 4.30 to 5.00.
Consider `Cc1c(C(=O)O)oc2ccc(S(=O)(=O)N(CCc3ccccc3)Cc3c(F)cccc3F)cc12` [Example F27-S46, 3-methyl-5-(N-(2,6-difluorobenzyl)-N-phenethylsulfamoyl)benzofuran-2-carboxylic acid], for which the melting point lay in the range of 180 to 181 °C. The pIC50 against FXR is 4.30 to 5.00.
As for `Cc1c(C(=O)O)oc2ccc(S(=O)(=O)N(CCc3ccccc3)c3ccccc3N3CCN(C(=O)N(C)C)CC3)cc12` [Example F27-S92, 3-methyl-5-(N-(2-(4-(dimethylcarbamoyl)piperazin-1-yl)phenyl)-N-phenethylsulfamoyl)benzofuran-2-carboxylic acid], the melting point was > 380 °C (dec.). On FXR, the pIC50 was 4.30 to 5.00.
The compound `Cc1c(C(=O)O)oc2ccc(S(=O)(=O)N(CCc3ccccc3)Cc3ccc(C(C)C)cc3)cc12` [Example F27-S36, 3-methyl-5-(N-(4-isopropylbenzyl)-N-phenethylsulfamoyl)benzofuran-2-carboxylic acid] yielded a melting point of 206 to 207 °C. The same compound had a pIC50 on FXR of 4.30 to 5.00.
As to `Cc1c(C(=O)O)oc2ccc(S(=O)(=O)N(CCc3ccccc3)c3ccc(N4CCN(Cc5ccccc5)CC4)cc3)cc12` [Example F27-S70, 3-methyl-5-(N-(4-(4-benzylpiperazin-1-yl)phenyl)-N-phenethylsulfamoyl)benzofuran-2-carboxylic acid], the melting point was > 380 °C (dec.). For the same compound, on FXR, the pIC50 was 4.30 to 5.00.
On to `Cc1c(C(=O)O)oc2ccc(S(=O)(=O)N(CCc3ccccc3)Cc3ccc4ccccc4c3)cc12` [Example F27-S45, 3-methyl-5-(N-(naphthalen-2-ylmethyl)-N-phenethylsulfamoyl)benzofuran-2-carboxylic acid], for which the melting point was > 380 °C (dec.). Further, the pIC50 against FXR is 4.30 to 5.00.
On the same counts, the results for `Cc1c(C(=O)O)oc2ccc(S(=O)(=O)N(CCc3ccccc3)c3ccc(N4CCN(C(=O)OC(C)(C)C)CC4)cc3)cc12` [Example F27-S65, 3-methyl-5-(N-(4-(4-(tert-butoxycarbonyl)piperazin-1-yl)phenyl)-N-phenethylsulfamoyl)benzofuran-2-carboxylic acid] are > 380 °C (dec.) and 4.30 to 5.00.
For `Cc1c(C(=O)O)oc2ccc(S(=O)(=O)N(CCc3ccccc3)Cc3cccc(C(F)(F)F)c3)cc12` [Example F27-S24, 3-methyl-5-(N-(3-trifluoromethylbenzyl)-N-phenethylsulfamoyl)benzofuran-2-carboxylic acid], in that order: 188 to 189 °C and 4.00 to 4.30.
On to `Cc1c(C(=O)O)oc2ccc(S(=O)(=O)N(CCc3ccccc3)Cc3ccccc3N3CCN(S(C)(=O)=O)CC3)cc12` [Example F27-S102, 3-methyl-5-(N-(2-(4-(methylsulfonyl)piperazin-1-yl)benzyl)-N-phenethylsulfamoyl)benzofuran-2-carboxylic acid], for which the melting point was 150 to 151 °C. For the same compound, at FXR, the pIC50 is 4.00 to 4.30.
`Cc1cccc(CN(CCc2ccccc2)S(=O)(=O)c2ccc3oc(C(=O)O)c(C)c3c2)c1` [Example F27-S23, 3-methyl-5-(N-(3-methylbenzyl)-N-phenethylsulfamoyl)benzofuran-2-carboxylic acid]: the melting point is > 380 °C (dec.). Also, the pIC50 against FXR was 4.30 to 5.00.
In turn, `Cc1c(C(=O)O)oc2ccc(S(=O)(=O)N(CCc3ccccc3)Cc3ccc(-c4ccccc4C(=O)OC(C)(C)C)cc3)cc12` [Example F27-S84, 3-methyl-5-(N-((2′-(tert-butoxycarbonyl)-[1,1′-biphenyl]-4-yl)methyl)-N-phenethylsulfamoyl)benzofuran-2-carboxylic acid] registered a melting point of 197 to 198 °C. On FXR, this compound showed a pIC50 of 4.30 to 5.00.
`Cc1c(C(=O)O)oc2ccc(S(=O)(=O)N(CCc3ccccc3)Cc3ccc(-c4ccccc4C#N)cc3)cc12` [Example F27-S83] showed a melting point of 197 to 198 °C. At FXR, this compound gave a pIC50 of 4.30 to 5.00.
Turning to `Cc1c(C(=O)O)oc2ccc(S(=O)(=O)N(CCc3ccccc3)Cc3cccc([N+](=O)[O-])c3)cc12` [Example F27-S25, 3-methyl-5-(N-(3-nitrobenzyl)-N-phenethylsulfamoyl)benzofuran-2-carboxylic acid], the melting point is > 380 °C (dec.). Also, the pIC50 at FXR is 4.30 to 5.00.
`Cc1c(C(=O)O)oc2ccc(S(=O)(=O)N(CCc3ccccc3)c3ccc(C4CCN(C(=O)OC(C)(C)C)CC4)cc3)cc12` [Example F27-S73, 3-methyl-5-(N-(4-(1-(tert-butoxycarbonyl)piperidin-4-yl)phenyl)-N-phenethylsulfamoyl)benzofuran-2-carboxylic acid]: the melting point is > 380 °C (dec.). The pIC50 against FXR is 5.00 to 7.00.
For `Cc1ccccc1CN(CCc1ccccc1)S(=O)(=O)c1ccc2oc(C(=O)O)c(C)c2c1` [Example F27-S17, 3-methyl-5-(N-(2-methylbenzyl)-N-phenethylsulfamoyl)benzofuran-2-carboxylic acid], in that order: 199 to 200 °C and 4.30 to 5.00.
For `Cc1c(C(=O)O)oc2ccc(S(=O)(=O)N(CCc3ccccc3)Cc3c(F)cccc3C(F)(F)F)cc12` [Example F27-S48, 3-methyl-5-(N-(2-fluoro-6-(trifluoromethyl)benzyl)-N-phenethylsulfamoyl)benzofuran-2-carboxylic acid], in that order: 99 to 100 °C and 4.30 to 5.00.
With `Cc1c(C(=O)O)oc2ccc(S(=O)(=O)N(CCc3ccccc3)Cc3cccc(F)c3)cc12` [Example F27-S20, 3-methyl-5-(N-(3-fluorobenzyl)-N-phenethylsulfamoyl)benzofuran-2-carboxylic acid], the melting point is > 380 °C (dec.). The pIC50 on FXR is 4.30 to 5.00.
`Cc1c(C(=O)O)oc2ccc(S(=O)(=O)N(CCc3ccccc3)c3ccccc3N3CCNCC3)cc12` [Example F27-S89, 3-methyl-5-(N-phenethyl-N-(2-(piperazin-1-yl)phenyl)sulfamoyl)benzofuran-2-carboxylic acid] registered a melting point of 172 to 173 °C. On FXR, this compound gave a pIC50 of 4.00 to 4.30.
On the same counts, the results for `Cc1c(C(=O)O)oc2ccc(S(=O)(=O)N(CCc3ccccc3)c3ccc(CN4CCN(C(=O)OC(C)(C)C)CC4)cc3)cc12` [Example F27-S76, 3-methyl-5-(N-(4-((4-(tert-butoxycarbonyl)piperazin-1-yl)methyl)phenyl)-N-phenethylsulfonamide)benzofuran-2-carboxylic acid] are 234 to 235 °C and 4.30 to 5.00.
`Cc1c(C(=O)O)oc2ccc(S(=O)(=O)N(CCc3ccccc3)Cc3ccc(SC(F)(F)F)cc3)cc12` [Example F27-S35, 3-methyl-5-(N-(4-(trifluoromethylthio)benzyl)-N-phenethylsulfamoyl)benzofuran-2-carboxylic acid] returned a melting point of 165 to 166 °C. Further, on FXR, the negative-log IC50 (pIC50) was 4.30 to 5.00.
For `Cc1c(C(=O)O)oc2ccc(S(=O)(=O)N(CCc3ccccc3)Cc3ccccc3C(F)(F)F)cc12` [Example F27-S18, 3-methyl-5-(N-(2-trifluoromethylbenzyl)-N-phenethylsulfamoyl)benzofuran-2-carboxylic acid], in that order: 138 to 139 °C and 4.30 to 5.00.

These data come from patent publication US20240239775A1, “FXR REGULATOR, PREPARATION METHOD THEREFOR, PHARMACEUTICAL COMPOSITION THEREOF AND USE THEREOF” (QINGDAO RUIJI MEDICAL TECHNOLOGY CO., LTD., priority 2021, published 2024).
